Structure (SMILES) | melting point [°C]
O=C1NC(=S)SC1=Cc1cccc(OCc2ccc(C(=O)c3ccccc3)cc2)c1 | 212 to 214
COc1ccc(S(=O)(=O)N2c3ccc(Br)cc3-c3ccccc3C2C)cc1C (configuration not stated) | 219 to 221
CC1CCc2cc(C(O)C(C)N3CCC(n4c(=O)[nH]c5ccccc54)CC3)ccc2S1 (configuration not stated) | 237 to 239
Cc1cccc(C(=O)NC(C)(C(N)=S)C(C)C)c1 (configuration not stated) | 108 to 110
O=C(O)c1ccsc1COc1ccc(CCCCO)cc1 | 140 to 141
O=C(O)Cc1coc2cc(OCc3ccc(OCc4ccc(C(F)(F)F)cc4)cc3)ccc12 | 161 to 163
CNc1ccc(F)c2c1C(=O)c1ccccc1-2 | 139 to 144
Nc1ccc2c(c1)c(CC(=O)O)cc(=O)n2Cc1ccc(Cl)cc1 | 196 to 199
CCCCCCCCCCCCCCCCCC(=O)N1CC1C#N (configuration not stated) | 85 to 88
CSc1ccc(NC#N)c(-c2ccccc2)c1 | 85
CCOC(C)OC1CCC2(C)C3=C(CCC2C1(C)C)C1=CCC(C(C)CSc2ccccc2)C1(C)CC3 (configuration not stated) | 101 to 107
Cc1ccc(C(=O)CC2CCCN(C)C2)cc1 (configuration not stated) | 70 to 74
C=CCN(CC)c1nc(N2CCc3ccccc3CC2)c(C#N)c(=O)n1CC=C | 138 to 140
C#CC(CC(=O)O)c1ccc(OC)c(OC2CCCC2)c1 (racemic) | 101 to 102
C#CCn1cncc1CO | 91 to 92.5
Cc1ccc2oc(=O)c(C(=O)Oc3cc(F)ccc3[N+](=O)[O-])cc2c1 | 224 to 226
O=C1C=CC(=O)N1c1ccccc1SCCSc1ccccc1N1C(=O)C=CC1=O | 110 to 115
CCN1C(=O)CCC(C)(C)c2ccc(Nc3ncc(Cl)c(Nc4c(F)cccc4OCC#N)n3)cc21 | 235 to 238
CC(C)(CCCC(=O)O)c1ccc2c(c1)C(=O)c1cc(C(C)(C)CCCC(=O)O)ccc1C2=O | 145 to 147
O=C(C[C@@H](CCCC1CCCCC1)c1nc(CNC2CCOCC2)no1)NO | 109 to 110
CSc1ncnn1C[C@]1(c2ccc(F)c(F)c2)O[C@@H]1c1ccccc1Cl (relative stereo) | 79 to 81
CCOC(=O)c1cn(CCO)c2nc(N3CCN(C(=O)OCC)CC3)c(F)cc2c1=O | 215 to 217
CC1(C)C(=O)Oc2c(S(C)(=O)=O)cc3cc(S(C)(=O)=O)c(Cn4cncn4)cc3c21 | 263 to 264
OP(O)C(C=Cc1ccccc1)NC(c1ccccc1)c1ccccc1 (configuration not stated) | 202 to 203
Cc1ccc(NC(=O)C(C)C)s1 | 95 to 97
O=C1c2ccccc2C(=O)N1CC(=O)N1c2ccccc2N(Cc2ccncc2)C(=O)[C@H]2CCC[C@H]21 (relative stereo) | 211 to 212

Structure (SMILES) | melting point [°C]
CCOc1nn(CCO)cc1C(=O)NCc1ccc(Cl)cc1Cl | 152 to 153
Cc1c(C(C)(C)C)cc(C(C)C)c(O)c1CO | 143 to 146
N#CC1(c2ccccc2)CCCCC1 | 120 to 122
CN1CCN(c2nc(C=C3SC(=S)N(CC(=O)O)C3=O)cs2)CC1 | > 300
CCOC(=O)CSc1nccc(NCc2ccc(Cl)cc2)n1 | 175 to 178
CC(C)(C)NC(=S)Nc1cc(Br)cc(Br)c1 | 172 to 174
CC(C)CN(CC(C)C)c1ccc(C(=O)c2ccccc2)cc1N | 59 to 60
CCCNC(=O)NCCc1c[nH]c2ccc(OC)cc12 | 79 to 80
CC(=O)OCC1OC(n2cc(S)c(=O)[nH]c2=O)CC1(O)C(C)=O (configuration not stated) | 159 to 163
COC(=O)c1nn(-c2ccccc2)c2c1CCc1cc(Cl)ccc1-2 | 190 to 192
CC(C)c1cc(C2SCC(=O)N2CCCCl)cc(C(C)C)c1O (configuration not stated) | 105 to 106
O=C(O)CC1=C(Cc2ccc3ccccc3c2)C(=O)CCC1 | 78 to 80
O=C1CSc2c(ccc3ccccc23)N1 | 211 to 212
CC1(CN2CCC(S(=O)c3ccc(OC(F)(F)F)cc3)CC2)Cn2cc([N+](=O)[O-])nc2O1 (configuration not stated) | 107 to 109
CC(=O)Oc1cccc2c1NC(O)C1CCCN1C2=O (configuration not stated) | 143 to 145
CC(C)(C)C1CCc2nnc(Cl)cc2C1 (configuration not stated) | 96 to 97
Cc1cncn1Cc1nc2ccccc2n1-c1ccccc1 | 100 to 102
COC1CC2(C)C(CCC3C4CC(C)=C(C(C)=O)C4(C)CC(=O)C32)CC1O (configuration not stated) | 184 to 186
COc1cc(NC(C)=O)c(Cl)cc1C(=O)NN1CCN(C)CC1 | 198 to 200
CCCc1c2c(c(O)c3c(=O)cc(C(=O)OCC)oc13)CCCC2 | 136 to 138
O=C1O[C@@H](CNC(=S)C(F)F)CN1c1ccc(N2CCS(=O)(=O)CC2)c(F)c1 | 146 to 147
CCC1(CC(=O)O)OCC(Cc2ccccc2)c2c1[nH]c1ccccc21 (single isomer, unassigned; (-)) | 142 to 143
CC(C)(C)c1cc(SC2CC(=O)N(c3ccc(N4C(=O)CC(Sc5cc(C(C)(C)C)c(O)c(C(C)(C)C)c5)C4=O)cc3)C2=O)cc(C(C)(C)C)c1O (configuration not stated) | 274 to 278
CCN1CCc2cc3ccccc3n2CC1 | 44 to 46
COC(=O)c1ccc2c(c1)OCC2(C)Cc1ccccc1 (configuration not stated) | 52
COc1ccc(CCCC(C)=O)cc1S(N)(=O)=O | 115 to 116

Structure (SMILES) | melting point [°C]
CS(=O)c1ccc(Nc2ccn(-c3ccccc3)n2)cc1 (configuration not stated) | 123 to 124
CC(CC(O)(CNc1ccc2c(c1)COC2=O)C(F)(F)F)c1ccccc1 (configuration not stated) | 110
C#CCOCCn1c(N2CCN(C)CC2)nc2ccccc21 | 145 to 146
CC(=Nc1ccc(Cl)nn1)N(C)C | 73
CCCC(O)c1ccc(Cl)c2nc3n(c12)CCCN3c1ccc(Cl)cc1Cl (configuration not stated) | 220 to 221
CCC1=C(C(=O)OC)C(c2ccc(F)cc2Cl)N=C(c2cscn2)N1 (configuration not stated) | 144 to 147
O=C(O)c1c(NCc2ccccc2)nc2ccc(Br)cc2c1Cl | 182 to 184
Cc1cc(N2CCN(Cc3ccc(N)cc3)C2=O)sc1C(=O)NCc1cccnc1 | 118 to 120
CC(C)(C)c1ccc(-c2cc3ccc(C(=O)O)cc3o2)cc1 | 294
COC(=O)c1cscc1NC(=O)CCl | 98 to 100
COc1cc(CCCC2OC(=O)NC2=O)ccc1OCc1csc(/C=C/c2ccccc2)n1 (configuration not stated) | 202 to 203
CCN(c1ccc(C(=O)c2ccccc2)cc1[N+](=O)[O-])C1CCCCC1 | 91.5 to 92
Cn1cc(Cl)c(=O)c(-c2cccc(C(F)(F)F)c2)c1 | 170 to 172
CC(C)(C)OC(=O)c1ncn2c1[C@@H]1CCCN1C(=O)c1c(Cl)cccc1-2 | 216 to 217
COc1ccccc1SCCCCCCCC(=O)O | 62 to 63
C[C@@H](N(CCNC(=O)OC(C)(C)C)C(=O)c1ccc(C(F)(F)F)cc1)[C@](O)(Cn1cncn1)c1ccc(F)cc1F (relative stereo) | 135 to 143
COc1cc(OCCN2CCN(C)CC2)ccc1/C=C/c1cc(/C=C/c2ccc3cc[nH]c3c2)n[nH]1 | 134 to 142
COC(=O)C(C)(C(=O)OC)C(C[N+](=O)[O-])c1ccccc1 (configuration not stated) | 130 to 132
O=c1[nH]cnc2cc(O)c(O)cc12 | > 250
Cc1c(C(=O)O)cnn1-c1c(Cl)cccc1Cl | 180 to 182
CC(C)n1nnnc1CCCn1ccc2cc(NC(=O)c3nc4ccc(Cl)cc4n3Cc3ccccc3)ccc21 | 190 to 191
O=C(Nc1ccc(C(F)(F)F)cc1)Nc1ccc(S(=O)(=O)Nc2ccc(Cl)cc2)cc1 | 252 to 257
NC1CCOC1c1ncnc2nc[nH]c12 (configuration not stated) | 128 to 130
COc1ccc(C(=O)OC2C=C(C)C(=O)CC(C)(C)C2O)cc1OC (configuration not stated) | 161 to 164
Cc1ccccc1C1(n2ccnc2)c2ccccc2-c2sccc21 (configuration not stated) | 75
CCCCC(CC)Nc1cc(C)nc(Cl)c1N (configuration not stated) | 139 to 140

Structure (SMILES) | melting point [°C]
O=NN1CCN(Cc2c[nH]c3ccccc23)CC1 | 116 to 118
COc1ccc(-c2c(Cl)c(CCl)nc3cc(OC)c(OC)cc23)cc1OC | 206 to 207
CCOCC(=O)Nc1c(NCCNC(=O)OC(C)(C)C)c(C)c(C)n2nnnc12 | 138 to 142
CCSc1c[nH]nc1C1=CCCN(C)C1 | 95 to 97
CC(C)NC(=Nc1ccc(Cl)cc1)Nc1ncccc1OCc1c(F)cccc1F | 112 to 113
CC(C)N(C)c1nccc(Oc2ccc(NC(=O)c3cc(F)cc(N4CCOCC4)c3)c3ccccc23)n1 | 94 to 96
CCCN1C(=O)N2CCN=C2c2c1ncn2C | 110 to 112
CNn1c(C)nn(C(=O)NC(C)(C)C)c1=O | 150
CN(C)S(=O)(=O)c1ccc2c(c1)S(=O)(=O)N=C1CCCN12 | 251 to 253
CS(=O)(=O)N1CCC(C2c3ccccc3C=Cc3ccccc32)CC1 | 260 to 268
CC(C)OC(=O)C1=C2SCC(=CC(=O)Sc3ccccc3)N2CC1 | 216 to 220
COc1c(-c2noc3ccsc23)ccc2c1O2 | 88 to 90
COC(=O)c1ccc(NC(=O)[C@H](Cc2ccc(-c3ccccc3)cc2)NCP(=O)(OC)OC)cc1 | 128 to 129
O=C(C1CCCCC1)N1CC(=S)N2CCCc3ccccc3C2C1 (configuration not stated) | 150 to 151
Cn1ccn(-c2ccc(N3CCN(c4ccc(O)cc4)CC3)cc2)c1=O | 283
COc1ccc2c(c1)C(=O)c1ccc(Nc3ccc(F)c(F)c3F)cc1CC2 | 128
CC1(O)CCC(=O)N(O)C1 (configuration not stated) | 98 to 100
CCOC(=O)C1C(=O)C(C(=O)c2ccc(Cl)cc2[N+](=O)[O-])C(=O)CC1CC(C)SCC (configuration not stated) | 102 to 104
N#Cc1ccc2nc3c(c(=O)n2c1)CSC3 | 256 to 257
Cc1ccc(Oc2nc3ccc(N=C=S)cc3s2)cc1 | 121 to 123
CCCc1nc(NS(=O)(=O)c2ccc(C(C)(C)C)cc2)c(-c2ccc(C)cc2)c(OCCO)n1 | 133 to 134
O=C(Nc1cccc(C(F)(F)F)c1)c1cccc2cc(OS(=O)(=O)C(F)(F)F)ccc12 | 177 to 178
CN1CCC(OC2c3cccc(Cc4ccccc4)c3CCn3cc(-c4ccccc4)nc32)CC1 (configuration not stated) | 66
CN(C)C=CC(=O)c1cccc(NC(=O)C2CCC2)c1 | 155 to 157
